According to PMC6394990, “Detailed characterization of the solution kinetics and thermodynamics of biotin, biocytin and HABA binding to avidin and streptavidin” (PLoS ONE, 2019):
Where two headings read alike, the source gives them in different places.

Target: T1, avidin (AV) (Gallus gallus, UniProt P02701)
T1 construct: purchased Calbiochem (La Jolla, CA)
Test: Stopped-flow association kinetics of dye-labeled biotin probes binding to avidin (F(t), rF(t); Arrhenius plots/global fitting)
Design: ln(k) / dS+ / dG+ / Eon for BFl / b of the line y = m1x+b1: unit not given here
Conditions: for k(average): k (full value)
Procedure: These reactions were carried out in a buffered solution of 10 mM Tris-HCl, 100 mM KCl, 2.5 mM MgCl2 and 1 mM CaCl2 at pH 8 and only AV-BcO reactions included pH 9 and 10. The concentrations, after mixing, were of 20 nM of dye-labeled B7 probe and 260 nM, 520 nM or 1040 nM of AV; and 200 nM, 300 nM, 400 nM or 800 nM of SAV at temperatures of 10, 15, 20 and 25°C. The deglycosylation of AV (for comparative association reactions) was carried out using the provided standard protocol with endoglycosidase H [47], both with and without incubation of a denaturant solution (2% SDS and 1M 2-mercaptoethanol).
The reactions were collected with the SF instrument, described previously. The fluorescence signal was collected through a 520 nm interference filter (Oriel Corp., Stratford, CT) with a detector time constant and SF dead time of 1 μs and 1 ms, respectively. The excitation light was provided by the Coherent Ar^+ ion laser (described above) at 488 nm with […] of incident power on the reaction cuvette. The laser source was followed by the photo-elastic modulator described above with the axis oriented 45^o with respect to the electric vector of the incident light and with the half-wave modulation (50 kHz) set for 488 nm excitation. The demodulation circuitry following the photomultiplier provided a DC(t) and a rectified AC(t) which were converted to digital data by a high-speed digitizer (PCI-5122) from National Instruments (Austin, TX) with 14-bit resolution and 100 MHz bandwidth, through channels 0 and 1. The data acquisition was controlled by LabVIEW (Vr 8) software at a collection rate of 6120 data points/second and stored in spreadsheets. The AC(t) and DC(t) data were baseline corrected before obtaining the signal ratio (Eq 4) as a function of time (ρt).
The constant AGain is the instrumental amplitude gain and was evaluated by solving ρ(t) using the known steady state anisotropy (rss) of the complexes which is equivalent to the r(t) at t = ∞; and H, obtained from the equivalent grating factor (G) for the filters and photo multiplier tubes in the SF. For the probes used in here G was 0.82 and H = (1-G)/(1+G) = 0.099. Knowing Again and H, the AC(t) and DC(t) signals can be solved for r(t) and F(t) (Eqs 4 and 5) and the normalized fluorescence, F¯(t) , and corrected fluorescence anisotropy, rF¯(t), were obtained when F¯(0) and rF¯(0) were scaled to 1 at t = 0.
The F¯(t) (Eq 6) is equivalent to (I||) + 2 (I⊥) and proportional to quantum yield (QYi), molar absorptivity (εi) and to the formation or disappearance of the emitting species Xi(t); and rF¯(t) including the steady state anisotropies (rss) of each fluorescent species (Eq 7).
The possible reaction models were discriminated by the squared residuals of the observed and calculated association traces of both fluorescence and anisotropy fluorescence signals, F¯(t) and rF¯(t) , respectively.

T1 sequence (P02701 25-152): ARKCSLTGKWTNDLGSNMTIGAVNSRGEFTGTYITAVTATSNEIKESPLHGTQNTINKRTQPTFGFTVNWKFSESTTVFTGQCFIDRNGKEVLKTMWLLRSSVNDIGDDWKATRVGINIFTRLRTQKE

## NC(CCCCNC(=O)CCCC[C@@H]1SC[C@@H]2NC(=O)N[C@@H]21)C(=O)NCCCCCNC(=O)c1ccc(-c2c3cc(F)c(=O)cc-3oc3cc(O)c(F)cc23)c(C(=O)O)c1 (some centres unmarked) [BcO, Oregon green 488 Biocytin]
25°C and pH 8 vs 25°C and pH 5
  kon fold slower than Green's 7 × 10^7 M^-1s^-1: 7.4 X
AV
  fold by which the SPR kon (ref 20) is slower than the kon of the probe: ~ 5 X
AV 1, reacting with BcO
  b of the line y = m1x+b1: 40.2925
AV 1, reacting with BcO, x = 1/Temp
  slope, m of the line y = m1x+b1: -7277.8
AV-BcO, 10 °C, 260 nM
  kon by corrected fluorescence anisotropy rF(t): 2.7e+06 ± 100000 M⁻¹ s⁻¹
AV-BcO, 10 °C, 260 nM, read-out: kon by corrected fluorescence anisotropy rF(t)
  kon: 2.65e+06 M⁻¹ s⁻¹
AV-BcO, 10 °C, 260 nM, read-out: kon by fluorescence change F(t)
  kon: 2.4e+06 ± 100000 M⁻¹ s⁻¹
AV-BcO, 10 °C, 260 nM, read-out: kon by fluorescence change F(t), right block without spread
  kon: 2.42e+06 M⁻¹ s⁻¹
AV-BcO, 10 °C, 520 nM
  kon by corrected fluorescence anisotropy rF(t): 2.7e+06 ± 100000 M⁻¹ s⁻¹
AV-BcO, 10 °C, 520 nM, read-out: kon by corrected fluorescence anisotropy rF(t)
  kon: 2.69e+06 M⁻¹ s⁻¹
AV-BcO, 10 °C, 520 nM, read-out: kon by fluorescence change F(t)
  kon: 2.6e+06 ± 200000 M⁻¹ s⁻¹
AV-BcO, 10 °C, 520 nM, read-out: kon by fluorescence change F(t), right block without spread
  kon: 2.61e+06 M⁻¹ s⁻¹
AV-BcO, 10 °C, 1040 nM
  kon by corrected fluorescence anisotropy rF(t): 2.7e+06 ± 100000 M⁻¹ s⁻¹
AV-BcO, 10 °C, 1040 nM, read-out: kon by corrected fluorescence anisotropy rF(t)
  kon: 2.72e+06 M⁻¹ s⁻¹
AV-BcO, 10 °C, 1040 nM, read-out: kon by fluorescence change F(t)
  kon: 2.5e+06 ± 200000 M⁻¹ s⁻¹
AV-BcO, 10 °C, 1040 nM, read-out: kon by fluorescence change F(t), right block without spread
  kon: 2.52e+06 M⁻¹ s⁻¹
AV-BcO, 10 °C, average of F(t) and rF(t) at 260, 520, 1040 nM, read-out: kon, Average
  kon: 2.6e+06 M⁻¹ s⁻¹
AV-BcO, 15 °C, 260 nM
  kon by corrected fluorescence anisotropy rF(t): 4e+06 ± 100000 M⁻¹ s⁻¹
AV-BcO, 15 °C, 260 nM, read-out: kon by corrected fluorescence anisotropy rF(t)
  kon: 4e+06 M⁻¹ s⁻¹
AV-BcO, 15 °C, 260 nM, read-out: kon by fluorescence change F(t)
  kon: 4.1e+06 ± 100000 M⁻¹ s⁻¹
AV-BcO, 15 °C, 260 nM, read-out: kon by fluorescence change F(t), right block without spread
  kon: 4.1e+06 M⁻¹ s⁻¹
AV-BcO, 15 °C, 520 nM
  kon by corrected fluorescence anisotropy rF(t): 3.82e+06 ± 100000 M⁻¹ s⁻¹
AV-BcO, 15 °C, 520 nM, read-out: kon by corrected fluorescence anisotropy rF(t)
  kon: 3.82e+06 M⁻¹ s⁻¹
AV-BcO, 15 °C, 520 nM, read-out: kon by fluorescence change F(t)
  kon: 3.95e+06 ± 100000 M⁻¹ s⁻¹
AV-BcO, 15 °C, 520 nM, read-out: kon by fluorescence change F(t), right block without spread
  kon: 3.95e+06 M⁻¹ s⁻¹
AV-BcO, 15 °C, 1040 nM
  kon by corrected fluorescence anisotropy rF(t): 4e+06 ± 200000 M⁻¹ s⁻¹
AV-BcO, 15 °C, 1040 nM, read-out: kon by corrected fluorescence anisotropy rF(t)
  kon: 4e+06 M⁻¹ s⁻¹
AV-BcO, 15 °C, 1040 nM, read-out: kon by fluorescence change F(t)
  kon: 3.9e+06 ± 200000 M⁻¹ s⁻¹
AV-BcO, 15 °C, 1040 nM, read-out: kon by fluorescence change F(t), right block without spread
  kon: 3.9e+06 M⁻¹ s⁻¹
AV-BcO, 15 °C, average of F(t) and rF(t) at 260, 520, 1040 nM, read-out: kon, Average
  kon: 4e+06 M⁻¹ s⁻¹
AV-BcO, 20 °C, 260 nM, read-out: kon by corrected fluorescence anisotropy rF(t)
  kon: 5.9e+06 M⁻¹ s⁻¹
AV-BcO, 20 °C, 260 nM, read-out: kon by fluorescence change F(t)
  kon: 5.7e+06 ± 100000 M⁻¹ s⁻¹
AV-BcO, 20 °C, 260 nM, read-out: kon by fluorescence change F(t), right block without spread
  kon: 5.7e+06 M⁻¹ s⁻¹
AV-BcO, 20 °C, 520 nM
  kon by corrected fluorescence anisotropy rF(t): 5.8e+06 ± 100000 M⁻¹ s⁻¹
AV-BcO, 20 °C, 520 nM, read-out: kon by corrected fluorescence anisotropy rF(t)
  kon: 5.8e+06 M⁻¹ s⁻¹
AV-BcO, 20 °C, 520 nM, read-out: kon by fluorescence change F(t)
  kon: 5.9e+06 ± 300000 M⁻¹ s⁻¹
AV-BcO, 20 °C, 520 nM, read-out: kon by fluorescence change F(t), right block without spread
  kon: 5.9e+06 M⁻¹ s⁻¹
AV-BcO, 20 °C, 1040 nM
  kon by corrected fluorescence anisotropy rF(t): 6.1e+06 ± 100000 M⁻¹ s⁻¹
AV-BcO, 20 °C, 1040 nM, read-out: kon by corrected fluorescence anisotropy rF(t)
  kon: 6.1e+06 M⁻¹ s⁻¹
AV-BcO, 20 °C, 1040 nM, read-out: kon by fluorescence change F(t)
  kon: 6e+06 ± 100000 M⁻¹ s⁻¹
AV-BcO, 20 °C, 1040 nM, read-out: kon by fluorescence change F(t), right block without spread
  kon: 6e+06 M⁻¹ s⁻¹
AV-BcO, 20 °C, average of F(t) and rF(t) at 260, 520, 1040 nM, read-out: kon, Average
  kon: 5.9e+06 M⁻¹ s⁻¹
AV-BcO, 25 °C, 260 nM, read-out: kon by corrected fluorescence anisotropy rF(t)
  kon: 9.5e+06 M⁻¹ s⁻¹
AV-BcO, 25 °C, 260 nM, read-out: kon by fluorescence change F(t)
  kon: 9.5e+06 ± 100000 M⁻¹ s⁻¹
AV-BcO, 25 °C, 260 nM, read-out: kon by fluorescence change F(t), right block without spread
  kon: 9.5e+06 M⁻¹ s⁻¹
AV-BcO, 25 °C, 520 nM, read-out: kon by corrected fluorescence anisotropy rF(t)
  kon: 9.5e+06 M⁻¹ s⁻¹
AV-BcO, 25 °C, 520 nM, read-out: kon by fluorescence change F(t)
  kon: 9.5e+06 ± 300000 M⁻¹ s⁻¹
AV-BcO, 25 °C, 520 nM, read-out: kon by fluorescence change F(t), right block without spread
  kon: 9.5e+06 M⁻¹ s⁻¹
AV-BcO, 25 °C, 1040 nM
  kon by corrected fluorescence anisotropy rF(t): 9.4e+06 ± 200000 M⁻¹ s⁻¹
AV-BcO, 25 °C, 1040 nM, read-out: kon by corrected fluorescence anisotropy rF(t)
  kon: 9.4e+06 M⁻¹ s⁻¹
AV-BcO, 25 °C, 1040 nM, read-out: kon by fluorescence change F(t)
  kon: 9.7e+06 ± 300000 M⁻¹ s⁻¹
AV-BcO, 25 °C, 1040 nM, read-out: kon by fluorescence change F(t), right block without spread
  kon: 9.7e+06 M⁻¹ s⁻¹
AV-BcO, 25 °C, average of F(t) and rF(t) at 260, 520, 1040 nM, read-out: kon, Average
  kon: 9.5e+06 M⁻¹ s⁻¹
AV, pH 8
  Ea^Forward: 14.4 ± 0.6 kcal/mol
AV, pH8, 10 (283.15 K)
  ln(k): 14.8
  k(average): 2.60E+06
AV, pH8, 10 (283.15 K), k (scaled)
  kon: 2.6e+06 M⁻¹ s⁻¹
AV, pH8, 15 (288.15 K)
  ln(k): 15.2
  k(average): 3.90E+06
AV, pH8, 15 (288.15 K), k (scaled)
  kon: 3.9e+06 M⁻¹ s⁻¹
AV, pH8, 20 (293.15 K)
  ln(k): 15.6
  k(average): 5.90E+06
AV, pH8, 20 (293.15 K), k (scaled)
  kon: 5.9e+06 M⁻¹ s⁻¹
AV, pH8, 25 (298.15 K)
  ln(k): 16.1
  k(average): 9.50E+06
AV, pH8, 25 (298.15 K), k (scaled)
  kon: 9.5e+06 M⁻¹ s⁻¹
AV, pH 8, forward
  ΔG^ǂ: 4.6 ± 0.3 kcal/mol
  ΔS^ǂ: 33.0 ± 2.5 cal/°K·mol
AV, pH 9
  Ea^Forward: 13.9 ± 0.7 kcal/mol
AV, pH 9, 10 (283.15 K)
  ln(k): 14.7
  k(average): 2.31E+06
AV, pH 9, 10 (283.15 K), k (scaled)
  kon: 2.3e+06 M⁻¹ s⁻¹
AV, pH 9, 15 (288.15 K)
  ln(k): 15.0
  k(average): 3.36E+06
